# Read-outs that look alike come from different tables or passages of the source.
# What was measured:
# [1] = tested on: Fibrosarcoma Meth A; assay: Test Method B: intrapleurally inoculated Meth A tumor in mice, injection into pleural cavity, mean survival time; type: in vivo, BALB/c mice; design: dose or concentration left out as unconfirmed; settings: for Anti-tumor activity (%) *d: comparison of mean survival time of medicated group (T) and control group (C), into pleural cavity three times; for Mean survival time: into pleural cavity three times (before 14 days, after 1 hour and after 3 days of tumor implantation), 5 x 10^5 Meth A cells intrapleurally
# Description: Groups of eight female BALB/c mice, aged 8-9 weeks and weighing 18.0-22.5 g were used.
# Fibrosarcoma Meth A (hereinafter referred to as Meth A) was successively transferred every 7 days into BALB/c mice by intraperitoneal inoculation of the ascites cells thereof and the Meth A in the ascites cells as harvested 6 or 7 days after the inoculation was used as tumor cells.
# Each of the BALB/c mice was inoculated intrapleurally with 5 x 10^5 Meth A cells in 0.1 ml Hanks solution.
# Test compound was dissolved in phosphate buffer saline solution, and was injected into pleural cavity to each of the mice in doses of 100 pg/0.05 ml/mouse three times, i.e. before 14 days, after 1 hour and after 3 days of tumor implantation.
# The antitumor activity of the test compound was estimated by comparing mean survival time of the two groups. • T : Mean survival time of the medicated group • C : Mean survival time of the control group
# [2] = tested on: Fibrosarcoma Meth A; assay: Test Method A: intradermally inoculated Meth A tumor in mice, intratumoral injection of test compound, tumor growth inhibition; type: in vivo, BALB/c mice; settings: 100 µg/mouse intratumorally once daily from Day 1 to Day 4 postimplant; for Mean of two diameters of the growing tumor: 1 x 10^5 Meth A cells intradermally; for responders at 0.1 mg / inhibition in vivo at 0.1 mg: Meth-A; for responders at 0.1 mg: read-out: Ratio of tumor free mice [Number of tumor free mice/ Number of mice used as a group] (converted); for inhibition in vivo at 0.1 mg: Mus musculus, read-out: Tumor growth inhibition (%) [(1-T/c)x100]
# Description: Groups of six female BALB/c mice, aged 12 weeks and weighing 19 - 21 g were used.
# Fib,rosarcoma Meth A (hereinafter referred to as Meth A) was successively transferred every 7 days into BALB/c mice by intraperitoneal inoculation of the ascites cells thereof and the Meth A in the ascites cells as harvested 6 days after the inoculation was used as tumor cells.
# Each of the BALB/c mice was inoculated intradermally with 1 x 10^5 Meth A cells in 0.05 ml Hanks solution.
# Test compound was dissolved in 0.5% methylcellulose saline solution, and was intratumorally injected to each of the mice in doses of 100 µg/mouse once daily from Day 1 to Day 4 postimplant.
# The control group was given with a vehicle alone in the same way.
# The antitumor effectiveness of the test compound was estimated by tumor growth inhibition (1-T/C). • T: Mean diameter of the growing tumor of the medicated group • C: Mean diameter of the growing tumor of the control group
Compound,Anti-tumor activity (%) *d [1] [%],Mean survival time [1] [days],other results
"CCCCCCCCCCCCCCCCCCOCC(COP(=O)([O-])OCC[n+]1ccccc1)NC(=O)NC (racemic) [11-(2), (rac)-1-0-Octadecyl-2-(N'-methylureido)-1,3-propanediol-3-[2-(l-pyridinio)ethyl]phosphate]",350,21.0,
"CCCCCCCCCCCCCCCCCCOCCCOP(=O)([O-])OCC[n+]1ccccc1 [3-(29), (rac)-1-0-Octadecyl-1,3-propanediol-3-[2-(1-pyridinio)-ethyl]phosphate]",264,18.5,
"CCCCCCCCCCCCCCCCCCOCC(COP(=O)(O)OCCN1CCN(CC)CC1)OC (racemic) [3-(3), (rac)-1-0-Octadecyl-2-0-methyl-glycerol-3-[2-(4-ethyl-l-piperazinyl)ethyl]phosphate]",317,19.0,
"CCCCCCCCCCCCCCCCCCOCC(COP(=O)(O)OCCN1CCN(CCO)CC1)OC (racemic) [3-(7), (rac)-1-0-Octadecyl-2-0-methyl-glycerol-3-[2-[4-(2-hydroxyethyl)-1-piperazinyl]ethyl]phosphate]",325,19.5,
"CCCCCCCCCCCCCCCCCCOCC(COP(=O)([O-])OCC[n+]1ccccc1)OCC (racemic) [3-(19), (rac)-1-0-Octadecyl-2-0-ethyl-glycerol-3-[2-(1-pyridinio)ethyl]phosphate]",317,19.0,
"CCCCCCCCCCCCCCCCCCOCC(COP(=O)([O-])OCC[n+]1ccccc1)Sc1nncs1 (racemic) [8-(4), (rac)-1-0-Octadecyl-2-(1,3,4-thiadiazolyl-2-thio)-1,3-propanediol-3-[2-(1-pyridinio)ethyl]phosphate]",417,25.0,
"CCCCCCCCCCCCCCCCCCOCC(COP(=O)([O-])OCC[n+]1ccccc1)SC (racemic) [3-(31), (rac)-1-0-Octadecyl-2-methylthio-1,3-propanediol-3-[2-(l-pyridinio)ethyl]phosphate]",358,21.5,
"CCCCCCCCCCCCCCCCOCC(COP(=O)([O-])OCC[n+]1ccccc1)OCc1ccccc1 (racemic) [3-(26), (rac)-l-0-Hexadecyl-2-0-benzyl-glycerol-3-[2-(l-pyridinio)ethyl]phosphate]",>650,>39.0,
"CCCCCCCCCCCCCCCCCCOCC(COP(=O)([O-])OCC[n+]1cccn1C)OC (racemic) [3-(18), (rac)-1-0-Octadecyl-2-0-methyl-glycerol-3-[2-(1-methyl-2-pyrazolio)ethyl]phosphate]",325,19.5,
"CCCCCCCCCCCCCCCCCCOCC(COP(=O)([O-])OCC[n+]1cnn(C)c1)OC (racemic) [3-(21), (rac)-1-0-Octadecyl-2-0-methyl-glycerol-3-[2-(1-methyl-1,2,4-triazol-4-io)ethyl]phosphate]",,,Mean of two diameters of the growing tumor ([2]; Day 14): 0 mm; Ratio of tumor free mice [Number of tumor free mice/ Number of mice used as a group] ([2]; Day 21): 6/6; Mean of two diameters of the growing tumor ([2]; Day 21): 0 mm; responders at 0.1 mg ([2]; Day 14): 100%; inhibition in vivo at 0.1 mg ([2]; Day 14): 100%; inhibition in vivo at 0.1 mg ([2]; Day 21): 100%
"CCCCCCCCCCCCCCCCCCOCC(COP(=O)(O)OCCn1ccnc1)OC (racemic) [3-(13), (rac)-1-0-Octadecyl-2-0-methyl-glycerol-3-[2-(1-imidazolyl)ethyl]phosphate]",,,Ratio of tumor free mice [Number of tumor free mice/ Number of mice used as a group] ([2]; Day 21): 0/6; responders at 0.1 mg ([2]; Day 14): 0%; inhibition in vivo at 0.1 mg ([2]; Day 14): 37%; inhibition in vivo at 0.1 mg ([2]; Day 21): 31%
(rac)-1-O-Octadecyl-2-0-methyl-glycerol-3-[2-(N-methyl-4-morpholino)ethyl]phosphate [3-(15)],433,26.0,
"CCCCCCCCCCCCCCCCCCOCC(COP(=O)([O-])OCC[n+]1ccc(C)cc1)OC (racemic) [3-(9), (rac)-1-0-Octadecyl-2-0-methyl-glycerol-3-[2-(4-methyl-l-pyridinio)ethyl]phosphate]",350,21.0,
"CCCCCCCCCCCCCCCCCCOCC(COP(=O)(O)OCCN1CCN(C)CC1)OC (racemic) [3-(16), (rac)-1-O-Octadecyl-2-0-methyl-glycerol-3-[2-(4-methyl-l-piperazinyl)ethyl]phosphate]",350,21.0,
"CCCCCCCCCCCCCCCCOCC(COP(=O)(O)OCCN1CCN(C)CC1)OC (racemic) [3-(2), (rac)-1-0-Hexadecyl-2-0-methyl-glycerol-3-[2-(4-methyl-l-piperazinyl)ethyl]phosphate]",350,21.0,
"CCCCCCCCCCCCCCCCCCOCC(COP(=O)([O-])OCC[n+]1cccc(C(=O)OCC)c1)OC (racemic) [3-(23), (rac)-1-0-Octadecyl-2-0-methyl-glycerol-3-[2-(3-ethoxycarbonyl-1-pyridinio)ethyl]phosphate]",,,Ratio of tumor free mice [Number of tumor free mice/ Number of mice used as a group] ([2]; Day 21): 3/6; responders at 0.1 mg ([2]; Day 14): 50%; inhibition in vivo at 0.1 mg ([2]; Day 14): 77%; inhibition in vivo at 0.1 mg ([2]; Day 21): 70%
"CCCCCCCCCCCCCCCCCCOCC(O)COP(=O)([O-])OCC[n+]1ccccc1 (racemic) [3-(30), (rac)-1-0-Octadecyl-glycerol-3-[2-(1-pyridinio)ethyl]-phosphate]",,,Ratio of tumor free mice [Number of tumor free mice/ Number of mice used as a group] ([2]; Day 21): 4/6; responders at 0.1 mg ([2]; Day 14): 66.7%; inhibition in vivo at 0.1 mg ([2]; Day 14): 85%; inhibition in vivo at 0.1 mg ([2]; Day 21): 84%
"CCCCCCCCCCCCCCCCCCOCC(COP(=O)([O-])OCC[N+](C)(C)C)OC (racemic) [*e, reference compound]",242,14.5,
"CCCCCCCCCCCCCCCCCCOCC(COP(=O)([O-])OCC[n+]1ccn(C)c1)OC (racemic) [3-(25), (rac)-1-0-Octadecyl-2-0-methyl-glycerol-3-[2-(1-methyl-3-imidazolio)ethyl]phosphate]",,,Ratio of tumor free mice [Number of tumor free mice/ Number of mice used as a group] ([2]; Day 21): 5/6; responders at 0.1 mg ([2]; Day 14): 83.3%; inhibition in vivo at 0.1 mg ([2]; Day 14): 94%; inhibition in vivo at 0.1 mg ([2]; Day 21): 93%
"CCCCCCCCCCCCCCCCCCOCC(COP(=O)([O-])OCCNC(=O)C[n+]1ccccc1)OC (racemic) [5-(2), (rac)-1-0-Octadecyl-2-0-methyl-glycerol-3-[2-(1-pyridinioacetylamino)ethyl]phoshate]",364,25.5,
"CCCCCCCCCCCCCCCCCCOCC(COP(=O)([O-])OCC[n+]1cccc(C)c1)OC (racemic) [3-(10), (rac)-1-0-Octadecyl-2-0-methyl-glycerol-3-(2-(3-methyl-1-pyridinio)ethyl]phosphate]",364,25.5,
"CCCCCCCCCCCCCCCCCCOCC(COP(=O)([O-])OCC[n+]1ccccc1)NC(=O)OCC (racemic) [10-(6), (rac)-1-0-Octadecyl-2-ethoxycarbonylamino-1,3-propanediol-3-[2-(1-pyridinio)ethyl]phosphate]",<400,24.0,
"CCCCCCCCCCCCCCCCCCOCC(COP(=O)(O)OCCN1CCCCC1)OC (racemic) [3-(14), (rac)-l-O-Octadecyl-2-0-methyl-glycerol-3-(2-piperidinoethyl)phosphate]",325,19.5,
"CCCCCCCCCCCCCCCCCCOCC(Cl)COP(=O)([O-])OCC[n+]1ccccc1 (racemic) [9-(4), (rac)-1-0-Octadecyl-2-chloro-1,3-propanediol-3-[2-(1-pyridinio)ethyl]phosphate]",,,Ratio of tumor free mice [Number of tumor free mice/ Number of mice used as a group] ([2]; Day 21): 4/6; responders at 0.1 mg ([2]; Day 14): 66.7%; inhibition in vivo at 0.1 mg ([2]; Day 14): 92%; inhibition in vivo at 0.1 mg ([2]; Day 21): 86%
"CCCCCCCCCCCCCCCCCCOCC(COP(=O)([O-])OCC[n+]1ccccn1)OC (racemic) [3-(12), (rac)-1-0-Octadecyl-2-0-methyl-glycerol-3-[2-(1-pyridazinio)ethyl]phosphate]",333,20.0,
"CCCCCCCCCCCCCCCCCCOCC(COP(=O)([O-])OCC[n+]1ccsc1)OC (racemic) [3-(22), (rac)-1-O-Octadecyl-2-0-methyl-glycerol-3-[2-(3-thiazolio)ethyl]phosphate]",,,Ratio of tumor free mice [Number of tumor free mice/ Number of mice used as a group] ([2]; Day 21): 3/6; responders at 0.1 mg ([2]; Day 14): 50%; inhibition in vivo at 0.1 mg ([2]; Day 14): 77%; inhibition in vivo at 0.1 mg ([2]; Day 21): 68%
